Reference: publication PMC3726930, “Synthesis and Biological Activity of N-Sulfonyltripeptides with C-Terminal Arginine as Potential Serine Proteases Inhibitors” (International Journal of Peptide Research and Therapeutics, 2012)
Read-outs that look alike come from different tables or passages of the source. Where a SMILES comes first, the peptide text is derived from it. [ ]: non-standard residue; d: D form. The star is where a group is joined. Ms = CS(=O)(=O)*

Experiments:
plasmin [1] = molecular target: T1, plasmin (Homo sapiens, UniProt P00747); details: ref Lynas et al. [2001]; cited from earlier work
T1 construct: converts the pro-enzyme plasminogen into its active form plasmin; purchased Chromogenix (Milano, Italy)
T1 sequence (P00747 581-810 limits assumed): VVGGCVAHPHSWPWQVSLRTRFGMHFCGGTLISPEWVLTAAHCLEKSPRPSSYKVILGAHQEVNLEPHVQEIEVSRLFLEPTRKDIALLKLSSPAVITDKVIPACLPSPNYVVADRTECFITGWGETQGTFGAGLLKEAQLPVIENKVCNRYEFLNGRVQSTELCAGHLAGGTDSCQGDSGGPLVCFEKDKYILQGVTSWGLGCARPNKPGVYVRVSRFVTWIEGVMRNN
T1 sequence (P00747 97-580 partner limits assumed): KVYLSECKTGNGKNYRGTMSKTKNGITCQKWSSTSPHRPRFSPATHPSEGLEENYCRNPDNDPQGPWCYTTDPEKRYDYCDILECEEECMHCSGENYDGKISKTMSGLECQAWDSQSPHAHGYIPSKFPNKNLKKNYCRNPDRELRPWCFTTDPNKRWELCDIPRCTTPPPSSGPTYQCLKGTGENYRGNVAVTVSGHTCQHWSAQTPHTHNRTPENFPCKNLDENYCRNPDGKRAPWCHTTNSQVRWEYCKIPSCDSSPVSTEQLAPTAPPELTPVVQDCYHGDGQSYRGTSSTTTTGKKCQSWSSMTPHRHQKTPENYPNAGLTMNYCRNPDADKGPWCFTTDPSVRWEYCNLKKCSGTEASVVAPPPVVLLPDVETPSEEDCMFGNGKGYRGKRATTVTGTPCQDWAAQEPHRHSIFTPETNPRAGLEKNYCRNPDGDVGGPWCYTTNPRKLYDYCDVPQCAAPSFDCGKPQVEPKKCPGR

urokinase = urokinase (Homo sapiens, UniProt P00749); assay: Amidolytic activity of urokinase, substrate S-2444; format: biochemical; details: Ki calculated from IC50 by Cheng-Prusoff; triplicate; n.i. = no effect at maximum concentration 20 mM; read-out: Ki ± SD Urokinase S-2444
Experimental: Determination of amidolytic activity was performed as previously described (Okada et al. [1988]). The detailed description of the method is given below. The buffer and the enzyme solution included: • tris buffer—0.6 ml (pH 8.8),
enzyme: urokinase (50 U/ml),
synthetic substrate: S-2444 (0.1 ml, 3 mM); • (b) tris buffer—0.5 ml (pH 8.4),
(§1) Buffer and 0.1 ml of enzyme solution was added to 0.2 ml of examined compound dissolved in 0.15 M NaCl (1–17) (as control 0.15 M NaCl). The mixture was incubated for 3 min at 37 °C, then the synthetic substrate was added. After 20 min of incubation, the reaction was stopped by adding 0.1 ml of 50 % acetic acid, and the absorbance of the released p-nitroaniline was measured at 405 nm (Spekol 1300, AnalyticJena). Every value represents the average of the triplicate determination. IC50 value was considered as the concentration of the inhibitor, which decreased the absorbance at 405 nm by 50 %, compared with the absorbance measured under the same conditions without the inhibitor. Ki was calculated from IC50 based on Cheng–Prusoff equation (Cheng and Prusoff [1973]).

thrombin = thrombin (Bos taurus, UniProt P00735); assay: Amidolytic activity of thrombin, substrate S-2238; format: biochemical; details: Ki calculated from IC50 by Cheng-Prusoff, n.i. = no effect at maximum concentration 20 mM, read-out: Ki ± SD Thrombin
Experimental: (§2) Determination of amidolytic activity was performed as previously described (Okada et al. [1988]). The detailed description of the method is given below. The buffer and the enzyme solution included: • tris buffer—0.6 ml (pH 8.8), […]
as §1, with “synthetic substrate: S-2444 (0.1 ml, 3 mM); • (b) tris buffer—0.5 ml (pH 8.4), enzyme: thrombin (1 U/ml), synthetic substrate: S-2238 (0.2 ml, 0.75 mM); • (c) tris buffer—0.5 ml (pH 7.4), Buffer” for “Buffer”

plasmin [2] = molecular target: T1, plasmin; assay: Amidolytic activity of plasmin, substrate S-2251; format: biochemical; details: Ki calculated from IC50 by Cheng-Prusoff; triplicate; read-out: Ki ± SD Plasmin S-2251
Experimental: as §2
as §1, with “synthetic substrate: S-2238 (0.2 ml, 0.75 mM); • (c) tris buffer—0.5 ml (pH 7.4), enzyme: plasmin (0.4 U/ml), synthetic substrate: S-2251 (0.2 ml, 3 mM); • (d) […] buffer—0.5 ml (pH 7.5), Buffer” for “Buffer”

plasmin [3] = molecular target: T1, plasmin; assay: SPRI, immobilised inhibitor interacting with plasmin; format: binding; details: plasmin 1 ng/ml
From the text: Gold chips were manufactured as described in previous papers (Gorodkiewicz [2009]; Gorodkiewicz and Regulska [2010]; Gorodkiewicz et al. [2011]). The gold surface of the chip was covered with photopolymer and hydrophobic paint. 9 × 12 free gold surfaces were obtained. Using this chip, nine different solutions can be simultaneously measured without mixing the tested solutions. Twelve single SPRI measurements can be performed from one solution.
Chips were rinsed with ethanol and water and dried under a stream of nitrogen. They were then immersed in 20 mM cysteamine ethanolic solutions for at least 2 h. The chips were then rinsed with ethanol and water and dried under a stream of nitrogen.
Among the synthesised compounds, four were selected for the examination of the interaction between the enzyme and the inhibitor. They were acids of peptides 10, 12, 13 and 14. Acids can be bound to a gold surface via cysteamine. […]
SPRI measurements with an application of an enzyme array were performed as described in previous papers (Gorodkiewicz [2009]; Gorodkiewicz and Regulska [2010]; Gorodkiewicz et al. [2011]). Briefly, the measurements were performed at a fixed angle of incident light and the reflectivity was simultaneously measured across an entire chip surface. […] The signal was measured twice on the basis of registered images, after immobilisation of enzymes and then after interaction inhibitors. […]

MDA-MB-231 cells = details: 24 h
DLD cells = details: 24 h

Row | Ki (urokinase) | Ki (thrombin) | Ki (plasmin [2]) | Inhibitor concentration above which the SPRI signal plateaus (plasmin) (plasmin [3]; Langmuir isotherm type curve) | SPRI signal for plasmin after interaction with inhibitor (plasmin [3]; inhibitor 0.002-0.2 mM) | IC50 (MDA-MB-231 cells) | IC50 (DLD cells) | Compound | Ki (plasmin [1])
1 | – | – | – | – | – | – | – | Ac-Leu-Leu-Arg-COCHO | 4.9 µM
2 | 11.2 ± 0.89 µM | > 20000 µM | 10 ± 0.8 µM | above 0.02 mM | positive SPRI signal | 620 µM | 230 µM | CS(=O)(=O)N[C@H](CO)C(=O)NCC(=O)N[C@@H](CCCNC(=N)N)C(=O)O [Compound 12, CH3PhSO2-D-Ser-Gly-Arg-OH] (Ms-[dS]-Gly-Arg-OH; N-terminus and C-terminus assumed) | –
